What was measured:
[1] = system: A6 cells; experiment: effect of FCCP and valinomycin on F16 accumulation in mitochondria; type: cell-based, mouse; conditions: F16 3 μM
Description: In order to test the contribution of the mitochondrial membrane potential (ΔΨm) to the accumulation of F16 in mitochondria, the effect of FCCP, an uncoupler of mitochondrial respiration, and the effect of valinomycin, a potassium ionosphore, were tested.
The effect of the protonophore FCCP on F16 accumulation was performed as previously done for the colocalization experiments described above. EpH4-A6 cells preincubated with F16 (3 μM) were subsequently treated with 5 μM FCCP. Images were acquired immediately before, 1 min and 5 min after FCCP addition and visulized under 40× magnification.

[2] = system: EpH4-A6, FKBR3, MDA-MD-468 and MCF-7 cells; experiment: cytoblot of QR on transformed cells; type: cell-based
Source text: (§1) The compound was included in cytoblot experiments, as described above, on the following cells: EpH4-A6 and control EpH4-EV cells and the following human breast cancer cell lines: FKBR3 (Neu positive cells); MDA-MD-468 (which over-express EGFR); and MCF-7 (which over-express Her3/ErbB3; EGFR and Neu).

[3] = system: control EpH4-EV cells; experiment: cytoblot of QR on normal cells; type: cell-based, mouse
Source text: as §1

[4] = system: mitochondria of cancer cells; experiment: accumulation of QR in mitochondria; type: cell-based

| SMILES | effect of preincubation on F16 entry and accumulation in mitochondria [1] | proliferation of transformed cells at 10 nM ([2]; 10 nM) | proliferation of transformed cells at 100 nM ([2]; 100 nM) | concentration inhibiting proliferation of transformed cells (as low as) ([2]; all of the transformed cells tested) | concentration inhibiting normal cells [3] | accumulation in mitochondria [4] |
| --- | --- | --- | --- | --- | --- | --- |
| CC(C)[C@@H]1NC(=O)[C@H](C)OC(=O)[C@@H](C(C)C)NC(=O)[C@@H](C(C)C)OC(=O)[C@H](C(C)C)NC(=O)[C@H](C)OC(=O)[C@@H](C(C)C)NC(=O)[C@@H](C(C)C)OC(=O)[C@H](C(C)C)NC(=O)[C@H](C)OC(=O)[C@@H](C(C)C)NC(=O)[C@@H](C(C)C)OC1=O [valinomycin] | retarded the entry and greatly reduced the overall accumulation of F16 inside mitochondria | – | – | – | – | – |
| N#CC(C#N)=NNc1ccc(OC(F)(F)F)cc1 [FCCP] | retarded the entry and greatly reduced the overall accumulation of F16 inside mitochondria | – | – | – | – | – |
| CC[n+]1c(/C=C/c2ccc(N(C)C)cc2)ccc2ccccc21 [QR, Quinaldine Red] | – | partially inhibited | essentially completely inhibited | 10 nM | ≥ 10 µM | accumulate in mitochondria of cancer cells and essentially not in mitochondria of normal cells |

Reference: US20040097408A1, “Compounds regulating cell proliferation and differentiation” (priority 2001, published 2004)
